In article PMC8187946, “Development of Agonist-Based PROTACs Targeting Liver X Receptor” (Frontiers in Chemistry, 2021):

Legend:
LXRβ [1] = target: T1, LXRβ (Homo sapiens, UniProt P55055); experiment: TR-FRET coactivator assay (positive control, parent agonist); assay type: binding
T1 construct: gene NR1H2
T1 sequence (P55055 1-460): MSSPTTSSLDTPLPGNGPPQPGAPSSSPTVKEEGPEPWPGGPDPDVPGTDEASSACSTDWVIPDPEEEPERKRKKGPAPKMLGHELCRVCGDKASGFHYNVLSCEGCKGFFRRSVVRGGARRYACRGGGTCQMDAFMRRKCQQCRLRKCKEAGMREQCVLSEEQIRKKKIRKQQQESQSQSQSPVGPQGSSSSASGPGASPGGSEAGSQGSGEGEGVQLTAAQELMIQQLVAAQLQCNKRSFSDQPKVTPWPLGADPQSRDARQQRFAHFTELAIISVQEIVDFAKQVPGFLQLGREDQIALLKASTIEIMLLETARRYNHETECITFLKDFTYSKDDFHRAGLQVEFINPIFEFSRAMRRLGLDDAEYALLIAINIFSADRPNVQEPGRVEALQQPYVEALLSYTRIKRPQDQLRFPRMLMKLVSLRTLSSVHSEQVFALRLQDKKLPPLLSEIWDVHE

LXRβ [2] = target: T1, LXRβ; experiment: TR-FRET coactivator assay; assay type: binding

`O=C(O)Cc1cccc(OCCCN(Cc2cccc(C(F)(F)F)c2Cl)CC(c2ccccc2)c2ccccc2)c1` [GW3965] showed an EC50 (LXRβ [1]) of 20 ± 7.2 nM.

`Cc1ncsc1-c1ccc(CNC(=O)[C@@H]2C[C@@H](O)CN2C(=O)[C@@H](NC(=O)COCCOCCOCCOCCOCCNC(=O)Cc2cccc(OCCCN(Cc3cccc(C(F)(F)F)c3Cl)CC(c3ccccc3)c3ccccc3)c2)C(C)(C)C)cc1` [compound 3, GW3965-PEG5-VH032] was tested, and the EC50 (LXRβ [2]) was 31 ± 4.4 nM.
